In one data set the target is T1, CysLT2 (Homo sapiens, UniProt Q9NS75).
T1 construct: host or cells: Chem-1 cells with Gα15
Briefly: GPCR Profiler. The data set is classed as cell-based.

The target in another data set is T2, KIT(V559D, T670I) (Homo sapiens, UniProt P10721, T670I/V559D).
T2 construct: purchased DiscoveRx
In words: KinomeScan. The data set is classed as binding. To be noted: read-out: % Control.

The target of a further data set is T3, TGFBR2 (Homo sapiens, UniProt P37173).
T3 construct: purchased DiscoveRx (Fremont, CA)
In words: KinomeScan. The data set is classed as binding. To be noted: read-out: % Control.

A further data set addresses T4, STK39 (Homo sapiens, UniProt Q9UEW8).
T4 construct: purchased DiscoveRx (Fremont, CA)
Briefly: KinomeScan. The data set is classed as binding. To be noted: read-out: % Control.

Another data set addresses T5, PAK4 (Homo sapiens, UniProt O96013).
T5 construct: purchased DiscoveRx
Briefly: KinomeScan. Type of data set: binding. To be noted: read-out: % Control.

For the next data set, the target named is T6, 5-HT6 (Homo sapiens, UniProt P50406).
T6 construct: host or cells: Chem-1 cells with promiscuous Gα15
In words: GPCR Profiler. The data set is classed as cell-based.

The target of a further data set is T7, KIT(D816V) (Homo sapiens, UniProt P10721, D816V).
T7 construct: purchased DiscoveRx
In words: KinomeScan. To be noted: read-out: % Control. The data set is classed as binding.

Another data set deals with T8, ACVR1 (Homo sapiens, UniProt Q04771).
T8 construct: purchased DiscoveRx
Briefly: KinomeScan. Type of data set: binding. To be noted: read-out: % Control.

For another data set, the target named is T9, S1P1 (Homo sapiens, UniProt P21453).
T9 construct: host or cells: Chem-1 cells with Gα15
Briefly: GPCR Profiler. The data set is classed as cell-based.

For the next data set, the target named is T10, PKAC-alpha (Homo sapiens, UniProt P17612).
T10 construct: purchased DiscoveRx (Fremont, CA)
Briefly: KinomeScan. Type of data set: binding. To be noted: read-out: % Control.

The next data set has as its target T11, PAK6 (Homo sapiens, UniProt Q9NQU5).
T11 construct: purchased DiscoveRx
Briefly: KinomeScan. To be noted: read-out: % Control. The data set is classed as binding.

In a further data set the test system is U87 spheroids. Briefly: GBM spheroid assay. Type of data set: cell-based, human. As for the experimental part: One thousand cells per well were plated in an ultra-low attachment, round-bottomed, 96-well plate, and spheroids were allowed to form for 3 days. Wells were then exposed to concentrations of vehicle, OGM2 or TMZ or a combination for 3 days. Spheroids were imaged in brightfield at 10× using z-stacks that were collapsed into z-projections in the Gen5 software using the LionheartFx (BioTek™). Automated measurements of the spheroid area were obtained using Gen5 software.
Tumor spheroid cultures are a more physiological model of tumor growth than typical 2D cell culture. Temozolomide sensitive U87 (FIG. 20A) and Temozolomide insensitive U138 (FIG. 20B) glioblastoma cell lines were plated in low attachment round bottom 96-well plates and allowed to form tumor spheroids for 3 days (T0). At T0, spheroids were imaged using Lionheart™ (HCS) High-Content Imaging Systems (Biotek™) and then were exposed to increasing doses of either Temozolomide or OGM2. After 5 days of treatment the spheroids were imaged again (T5). The size (area) of the spheroids after 5 days of treatment was quantified, and the average size of the spheroids at TO is depicted in red.
A GPR68-positive allosteric modulator, Ogerin, was tested. U87glioblastoma cells were plated in low attachment round bottom 96-well plates and allowed to form tumor spheroids for 3 days (TO). These spheroids were treated with Vehicle (DMSO), 10 μM/20 μM Ogerin or 10 μM/20 μM Ogremorphin-2 (OGM2). The spheroids were placed in the Lionheart™ HCS equipped with environmental control (5% CO2 at 37° C.) and imaged every 12 hours.
Spheroids were formed over 3 days using low attachment 96-well round bottom plates and then treated with DMSO or OGM2 in either pH 8 buffered media or pH 6.2 buffered media and grown for 3 days. The size (area) of spheroids was measured in relative area units. […] This increase in growth was abrogated by OGM2.

In a further data set the test system is HEK293. Type of data set: cell-based. The source says: FIG. 59A through FIG. 59D: OGM2 causes specific cell death in glioblastoma cells.
Thus, in contrast to erastin, OGM2 induces ferroptosis selectively in cancer cells.

A further data set relates to A549. Briefly: Crystal violet viability, 24 hours. The data set is classed as cell-based. As for the experimental part:
A549 lung cancer cells were plated at different concentrations of cell per well in a 96-well plate. On the following day cells were treated with increasing doses of OGM2. Twenty-four hours later cells viability was assayed with crystal violet and normalized to untreated.

T6 sequence (P50406 whole entry, species assumed): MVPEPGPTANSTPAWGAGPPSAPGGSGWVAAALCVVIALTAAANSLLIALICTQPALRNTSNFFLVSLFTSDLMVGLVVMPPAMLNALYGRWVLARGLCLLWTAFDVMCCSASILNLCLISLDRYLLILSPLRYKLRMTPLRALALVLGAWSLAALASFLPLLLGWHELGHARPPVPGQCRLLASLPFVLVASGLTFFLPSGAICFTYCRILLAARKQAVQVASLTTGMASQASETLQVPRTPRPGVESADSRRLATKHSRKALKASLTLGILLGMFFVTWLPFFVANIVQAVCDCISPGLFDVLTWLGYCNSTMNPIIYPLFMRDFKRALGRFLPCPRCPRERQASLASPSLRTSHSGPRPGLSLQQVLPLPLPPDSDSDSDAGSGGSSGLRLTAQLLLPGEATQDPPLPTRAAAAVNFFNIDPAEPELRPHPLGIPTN
T1 sequence (Q9NS75 whole entry, species assumed): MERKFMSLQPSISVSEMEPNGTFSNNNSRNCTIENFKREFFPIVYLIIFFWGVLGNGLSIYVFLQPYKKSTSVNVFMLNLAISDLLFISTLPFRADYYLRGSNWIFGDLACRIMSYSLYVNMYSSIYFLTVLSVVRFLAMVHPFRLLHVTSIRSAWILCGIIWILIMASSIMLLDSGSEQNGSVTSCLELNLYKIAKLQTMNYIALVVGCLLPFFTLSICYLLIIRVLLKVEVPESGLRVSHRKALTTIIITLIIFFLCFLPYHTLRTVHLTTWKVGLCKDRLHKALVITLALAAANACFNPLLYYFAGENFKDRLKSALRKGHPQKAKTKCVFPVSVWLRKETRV
T9 sequence (P21453 whole entry, species assumed): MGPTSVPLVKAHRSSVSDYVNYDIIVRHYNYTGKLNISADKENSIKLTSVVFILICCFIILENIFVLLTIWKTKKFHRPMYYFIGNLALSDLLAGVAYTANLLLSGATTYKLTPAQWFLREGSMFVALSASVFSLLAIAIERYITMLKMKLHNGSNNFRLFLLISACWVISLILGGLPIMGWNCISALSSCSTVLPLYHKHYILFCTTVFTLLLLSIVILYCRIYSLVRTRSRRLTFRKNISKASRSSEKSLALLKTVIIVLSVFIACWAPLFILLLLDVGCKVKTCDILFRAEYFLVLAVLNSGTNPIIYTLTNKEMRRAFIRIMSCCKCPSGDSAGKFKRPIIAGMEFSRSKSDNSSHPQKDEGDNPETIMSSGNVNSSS
T7 sequence (P10721 26-976 D816V): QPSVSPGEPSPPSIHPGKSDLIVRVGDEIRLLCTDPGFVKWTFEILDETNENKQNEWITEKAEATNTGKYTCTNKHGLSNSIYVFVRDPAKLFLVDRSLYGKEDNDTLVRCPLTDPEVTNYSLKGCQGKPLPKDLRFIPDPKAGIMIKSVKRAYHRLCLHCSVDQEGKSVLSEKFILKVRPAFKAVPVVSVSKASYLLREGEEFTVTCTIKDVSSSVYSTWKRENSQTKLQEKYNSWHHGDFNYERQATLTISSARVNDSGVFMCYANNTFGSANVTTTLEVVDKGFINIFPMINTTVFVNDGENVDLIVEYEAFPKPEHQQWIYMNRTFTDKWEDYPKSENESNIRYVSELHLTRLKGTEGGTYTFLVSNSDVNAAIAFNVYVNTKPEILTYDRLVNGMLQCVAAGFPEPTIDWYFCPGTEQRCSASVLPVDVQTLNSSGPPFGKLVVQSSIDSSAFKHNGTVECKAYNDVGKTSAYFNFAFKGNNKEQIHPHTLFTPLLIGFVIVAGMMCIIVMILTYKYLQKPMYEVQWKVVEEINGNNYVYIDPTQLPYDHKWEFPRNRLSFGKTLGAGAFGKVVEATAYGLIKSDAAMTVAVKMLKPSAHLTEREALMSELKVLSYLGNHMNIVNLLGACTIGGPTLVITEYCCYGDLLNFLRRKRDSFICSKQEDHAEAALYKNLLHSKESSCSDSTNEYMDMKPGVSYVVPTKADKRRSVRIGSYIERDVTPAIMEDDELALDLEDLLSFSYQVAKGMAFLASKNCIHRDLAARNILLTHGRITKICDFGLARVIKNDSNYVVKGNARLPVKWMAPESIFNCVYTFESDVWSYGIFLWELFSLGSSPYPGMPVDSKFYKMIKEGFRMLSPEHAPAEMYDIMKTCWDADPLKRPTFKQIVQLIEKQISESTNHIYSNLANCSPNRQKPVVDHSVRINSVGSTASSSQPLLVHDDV
T8 sequence (Q04771 208-502 limits assumed): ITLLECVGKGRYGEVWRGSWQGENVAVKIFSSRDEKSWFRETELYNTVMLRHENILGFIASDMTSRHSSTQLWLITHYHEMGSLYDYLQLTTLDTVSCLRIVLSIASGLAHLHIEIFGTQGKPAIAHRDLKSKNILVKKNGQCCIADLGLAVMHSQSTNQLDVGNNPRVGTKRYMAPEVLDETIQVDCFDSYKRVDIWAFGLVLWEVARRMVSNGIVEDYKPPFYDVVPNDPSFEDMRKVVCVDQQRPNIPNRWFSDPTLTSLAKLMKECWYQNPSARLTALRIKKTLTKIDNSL
T5 sequence (O96013 whole entry): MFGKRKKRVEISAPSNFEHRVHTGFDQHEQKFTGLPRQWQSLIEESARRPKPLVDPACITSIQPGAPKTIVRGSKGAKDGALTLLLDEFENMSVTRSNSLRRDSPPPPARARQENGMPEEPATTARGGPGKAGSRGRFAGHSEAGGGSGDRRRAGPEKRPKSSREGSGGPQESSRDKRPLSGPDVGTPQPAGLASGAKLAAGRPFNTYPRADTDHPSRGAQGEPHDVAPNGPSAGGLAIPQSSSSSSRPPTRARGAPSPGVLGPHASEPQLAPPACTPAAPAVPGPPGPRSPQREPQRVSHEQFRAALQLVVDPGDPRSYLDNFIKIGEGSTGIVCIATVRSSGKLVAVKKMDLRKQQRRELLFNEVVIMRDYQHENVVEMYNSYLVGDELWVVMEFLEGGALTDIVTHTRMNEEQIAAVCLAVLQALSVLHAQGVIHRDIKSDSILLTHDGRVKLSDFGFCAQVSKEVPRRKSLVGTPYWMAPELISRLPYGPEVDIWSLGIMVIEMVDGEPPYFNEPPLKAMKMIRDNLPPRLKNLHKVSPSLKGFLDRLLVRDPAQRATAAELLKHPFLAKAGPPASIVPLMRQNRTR
T2 sequence (P10721 26-976 V559D/T670I): as the sequence (P10721 26-976 D816V) above, with V534D, T645I, V791D counted along it
T11 sequence (Q9NQU5 whole entry): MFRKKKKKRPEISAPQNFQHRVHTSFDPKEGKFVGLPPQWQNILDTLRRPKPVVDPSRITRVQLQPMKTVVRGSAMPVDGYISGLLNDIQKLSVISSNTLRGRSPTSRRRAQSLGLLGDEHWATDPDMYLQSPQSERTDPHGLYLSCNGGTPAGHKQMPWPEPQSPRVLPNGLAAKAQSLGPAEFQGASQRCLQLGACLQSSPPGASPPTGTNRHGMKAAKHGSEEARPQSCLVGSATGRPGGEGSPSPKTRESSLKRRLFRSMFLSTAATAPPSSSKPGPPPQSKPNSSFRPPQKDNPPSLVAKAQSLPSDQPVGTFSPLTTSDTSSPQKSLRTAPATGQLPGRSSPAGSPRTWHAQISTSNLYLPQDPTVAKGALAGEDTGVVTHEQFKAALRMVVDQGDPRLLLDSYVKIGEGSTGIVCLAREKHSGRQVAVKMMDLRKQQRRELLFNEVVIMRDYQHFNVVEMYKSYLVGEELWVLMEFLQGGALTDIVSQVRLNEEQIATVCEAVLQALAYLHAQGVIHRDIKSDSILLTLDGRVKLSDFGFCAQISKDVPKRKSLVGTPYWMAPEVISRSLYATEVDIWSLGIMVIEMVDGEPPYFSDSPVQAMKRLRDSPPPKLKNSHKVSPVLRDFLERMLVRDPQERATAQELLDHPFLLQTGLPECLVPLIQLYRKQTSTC
T3 sequence (P37173 23-567): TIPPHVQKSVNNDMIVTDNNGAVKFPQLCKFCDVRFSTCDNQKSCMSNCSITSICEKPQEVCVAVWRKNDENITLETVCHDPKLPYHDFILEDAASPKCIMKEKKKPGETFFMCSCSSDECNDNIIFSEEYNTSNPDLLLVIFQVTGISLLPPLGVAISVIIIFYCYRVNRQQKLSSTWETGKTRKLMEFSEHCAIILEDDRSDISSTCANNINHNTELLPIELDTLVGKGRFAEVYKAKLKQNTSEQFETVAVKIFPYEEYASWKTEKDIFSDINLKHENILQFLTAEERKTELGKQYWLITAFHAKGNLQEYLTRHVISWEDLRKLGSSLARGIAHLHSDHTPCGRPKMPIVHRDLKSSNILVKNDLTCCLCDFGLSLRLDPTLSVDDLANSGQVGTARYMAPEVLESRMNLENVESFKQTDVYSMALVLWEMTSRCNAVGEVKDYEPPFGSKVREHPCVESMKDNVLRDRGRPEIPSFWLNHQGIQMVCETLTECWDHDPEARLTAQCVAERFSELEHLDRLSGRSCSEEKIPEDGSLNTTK

As to `CCc1ccc2c(c1)C1(NN=C(c3cccc4ccccc34)S1)C(=O)N2` (stereo not shown) [OGM1, 5-ethyl-5′-naphthalen-1-ylspiro[1H-indole-3,2′-3H-1,3,4-thiadiazole]-2-one], the Antagonism was −7.1 on CysLT2 (10 uM), −4.4 on 5-HT6 (10 uM) and 3.1 at S1P1 (10 uM). For the same molecule, the Agonism on CysLT2 (12.5 uM) was −0.3; at 5-HT6 (12.5 uM), −0.7; on S1P1 (12.5 uM) it was −0.4. Further, the remaining binding at 10 µM on KIT(V559D, T670I) came out at 77%; at TGFBR2 it was 100%; at STK39 it was 59%; at PAK4 it was 66%; on KIT(D816V), 100%; on ACVR1, 100%. The remaining binding at 10 µM at PKAC-alpha stood at 95%; on PAK6, 89%.

For the molecule `CCc1ccc2c(c1)C1(NN=C(c3ccccc3)S1)C(=O)N2` (stereo not shown) [OGM2], in the data set with U87 spheroids, the spheroid growth rate entry is listed as “impaired spheroid growth rate” and the “spheroid growth, comparison with TMZ” value is recorded as “more potent inhibitor of U87 spheroid growth than TMZ”. The “increase in spheroid growth at pH 6.2 versus pH 8” value with U87 spheroids (3 days) is reported as “abrogated”. Further, the “HEK293 cell viability / survival” value in the data set with HEK293 is reported as “no effect”. Moreover, in the data set with A549, the toxicity entry was “relatively High doses of OGM2 are necessary for toxicity in A549 cells”.
